This passage reports Ki and EC50 results from ChEMBL document CHEMBL1137124, “Lysine sulfonamides as novel HIV-protease inhibitors: Nepsilon-disubstituted ureas” (Bioorg Med Chem Lett, 2004).

Test [1] addresses Human immunodeficiency virus type 1 protease (Human immunodeficiency virus 1, UniProt Q72874). As to the kind of experiment: Inhibition constant for HIV aspartyl protease.
For test [2], the system named is Human immunodeficiency virus. The experiment in a line: Effective concentration against wild type HIV virus was determined in anti-viral assay. As to conditions: Human immunodeficiency virus 1. The test is classed as functional, organism-based.
The test system of test [3] is Human immunodeficiency virus. As to the kind of experiment: Effective concentration against wild type virus HIV virus was determined in anti-viral assay. The format is functional, organism-based. Particulars: Human immunodeficiency virus 1.

`Cc1ccc(S(=O)(=O)N(CC(C)C)[C@@H](CCCCNC(=O)N(Cc2ccccc2)Cc2ccccc2)C(=O)O)cc1` gave an inhibition constant (Ki) in test [1] of 0.0072 µM.

In turn, `COc1ccc(CN(Cc2ccc3c(c2)OCO3)C(=O)NCCCC[C@@H](CO)N(CC(C)C)S(=O)(=O)c2ccc(N)cc2)cc1` came in with a Ki in test [1] of 0.0022 µM. In test [2], the EC50 was 0.5 µM.

`CC(C)CN([C@H](CO)CCCCNC(=O)N(Cc1ccccc1)Cc1cccc2c1OCO2)S(=O)(=O)c1ccc(N)cc1` displayed a Ki in test [1] of 0.0054 µM. The EC50 in test [2] is > 10 µM.

Take `CC(C)CCN([C@H](CO)CCCCNC(=O)N(Cc1ccccc1)Cc1ccccc1)S(=O)(=O)c1ccc(N)cc1`: in test [1], the affinity, expressed as Ki, was 0.0058 µM. In test [3], the EC50 was > 10 µM.

The compound `COc1ccc(CN(Cc2ccc3c(c2)OCO3)C(=O)NCCCC[C@@H](CO)N(CCC(C)C)S(=O)(=O)c2ccc(N)cc2)cc1` had a Ki in test [1] of 0.0029 µM. The EC50 in test [3] is 0.7 µM.

Turning to `CC(C)CCN([C@H](CO)CCCCNC(=S)N(Cc1ccc(F)cc1)Cc1ccc2c(c1)OCCO2)S(=O)(=O)c1ccc(N)cc1`, the Ki in test [1] worked out at 0.0099 µM.

On to `Cc1ccc(S(=O)(=O)N(CC(C)C)[C@@H](CCCCNC(=O)N(Cc2ccccc2)Cc2ccncc2)C(=O)O)cc1`, for which the Ki in test [1] was 0.0037 µM.

In test [1], `CC(C)CN([C@H](CO)CCCCNC(=O)N(Cc1ccc2c(c1)OCO2)Cc1ccc2c(c1)OCO2)S(=O)(=O)c1ccc(N)cc1` had a Ki of 0.0017 µM. In test [2], this compound displayed an EC50 of 0.15 µM.

Consider `Cc1ccc(S(=O)(=O)N(CC(C)C)[C@@H](CCCCNC(=O)N(CCc2ccccc2)Cc2ccccc2)C(=O)O)cc1`, for which the Ki in test [1] was > 0.3 µM.

For the compound `CC(C)CCN([C@H](CO)CCCCNC(=O)N(Cc1ccc(C(F)(F)F)cc1)Cc1ccc2c(c1)OCO2)S(=O)(=O)c1ccc(N)cc1`, the affinity in test [1], expressed as Ki, was 0.003 µM. In test [3], the concentration giving a half-maximal response (EC50) is > 10 µM.

Compound `CC(C)CN([C@H](CO)CCCCNC(=O)N(Cc1ccc2c(c1)OCO2)Cc1cccs1)S(=O)(=O)c1ccc(N)cc1` registered an inhibition constant Ki in test [1] of 0.002 µM. A half-maximal response in test [2] (EC50) required 4 µM.

Take `CC(C)CN([C@H](CO)CCCCNC(=O)N(Cc1ccccc1)Cc1ccccc1)S(=O)(=O)c1ccc(N)cc1`: in test [1], the Ki came to 0.012 µM. Moreover, the EC50 in test [2] was 3 µM.

Regarding `Cc1ccc(S(=O)(=O)N(CC(C)C)[C@@H](CCCCNC(=O)NCc2ccccn2)C(=O)O)cc1`, the Ki in test [1] is > 0.3 µM.

Compound `CC(C)CCN([C@H](CO)CCCCNC(=O)N(Cc1ccc([N+](=O)[O-])cc1)Cc1ccc2c(c1)OCO2)S(=O)(=O)c1ccc(N)cc1` gave a Ki in test [1] of 0.0022 µM. The EC50 in test [3] is 0.845 µM.

Consider `Cc1ccc(S(=O)(=O)N(CC(C)C)[C@H](CO)CCCCNC(=O)N(Cc2ccccc2)Cc2ccccc2)cc1`, for which the affinity in test [1] corresponds to a Ki of 0.015 µM.

`Cc1ccc(S(=O)(=O)N(CC(C)C)[C@@H](CCCCNC(=O)NCCc2ccccc2)C(=O)O)cc1`: in test [1], affinity was put at a Ki of 0.204 µM.

As for `CC(C)CN([C@H](CO)CCCCNC(=O)N(Cc1ccccc1)Cc1ccc2c(c1)OCO2)S(=O)(=O)c1ccc(N)cc1`, the Ki in test [1] was 0.0026 µM. A half-maximal response in test [2] (EC50) required 1.4 µM.

In test [1], `CC(C)CCN([C@H](CO)CCCCNC(=O)N(Cc1ccc(F)cc1)Cc1ccc2c(c1)OCO2)S(=O)(=O)c1ccc(N)cc1` had a Ki of 0.0049 µM. In test [3], this compound had a concentration for a half-maximal effect (EC50) of 1.2 µM.

In the case of `CC(C)CCN([C@H](CO)CCCCNC(=O)N(Cc1ccc2c(c1)OCO2)Cc1cccs1)S(=O)(=O)c1ccc(N)cc1`, in test [1], the affinity, expressed as Ki, was 0.0014 µM. Besides, in test [3], the EC50 is 0.8 µM.

Consider `CC(C)CN([C@H](CO)CCCCNC(=O)N(Cc1ccc(F)cc1)Cc1ccc2c(c1)OCO2)S(=O)(=O)c1ccc(N)cc1`, for which affinity in test [1] was put at a Ki of 0.002 µM. In test [2], a half-maximal response (EC50) required 0.488 µM.

`COc1ccc(CN(Cc2ccc3c(c2)OCO3)C(=O)NCCCC[C@@H](CO)N(CCC(C)C)S(=O)(=O)c2ccc(N)cc2)cc1OC` returned a Ki in test [1] of 0.003 µM.

Turning to `COc1cccc(CN(Cc2ccc3c(c2)OCO3)C(=O)NCCCC[C@@H](CO)N(CCC(C)C)S(=O)(=O)c2ccc(N)cc2)c1`, the affinity in test [1], expressed as Ki, was 0.0022 µM.

In test [1], `CC(C)CCN([C@H](CO)CCCCNC(=O)N(Cc1ccc(F)cc1)Cc1ccc2c(c1)OCCO2)S(=O)(=O)c1ccc(N)cc1` showed a Ki of 0.0054 µM.

Take `COc1cccc(CN(Cc2ccc3c(c2)OCO3)C(=S)NCCCC[C@@H](CO)N(CCC(C)C)S(=O)(=O)c2ccc(N)cc2)c1`: in test [1], affinity was put at a Ki of 0.0026 µM.

The compound `CC(C)CN([C@H](CO)CCCCNC(=O)N(Cc1ccsc1)Cc1ccc2c(c1)OCO2)S(=O)(=O)c1ccc(N)cc1` registered a Ki in test [1] of 0.0063 µM. In addition, the EC50 in test [2] is 5 µM.

With `CC(C)CN([C@H](CO)CCCCNC(=O)N(Cc1ccccc1)Cc1ccc(F)cc1F)S(=O)(=O)c1ccc(N)cc1`, the Ki in test [1] was found to be 0.012 µM. The compound also registered an EC50 in test [2] of 3.2 µM.

`CC(C)CN([C@H](CO)CCCCNC(=O)N(Cc1ccccc1)Cc1cccs1)S(=O)(=O)c1ccc(N)cc1` showed a Ki in test [1] of 0.011 µM. The same compound yielded an EC50 in test [2] of 5 µM.

For `CC(C)CN([C@H](CO)CCCCNC(=O)N(Cc1ccc(C(F)(F)F)cc1)Cc1ccc2c(c1)OCO2)S(=O)(=O)c1ccc(N)cc1`, the Ki in test [1] came to 0.0025 µM. In test [2], this compound had a concentration giving a half-maximal response (EC50) of 1.6 µM.

In turn, `CC(C)CCN([C@H](CO)CCCCNC(=O)N(Cc1ccccc1)Cc1ccc2c(c1)OCO2)S(=O)(=O)c1ccc(N)cc1` came in with a Ki in test [1] of 0.0041 µM. Moreover, the EC50 in test [3] worked out at 0.871 µM.

With `COc1ccc(CN(Cc2ccc3c(c2)OCO3)C(=S)NCCCC[C@@H](CO)N(CCC(C)C)S(=O)(=O)c2ccc(N)cc2)cc1`, in test [1], the inhibition constant Ki came out at 0.0036 µM.

In test [1], `COc1ccc(CN(Cc2ccc3c(c2)OCO3)C(=S)NCCCC[C@@H](CO)N(CCC(C)C)S(=O)(=O)c2ccc(N)cc2)cc1OC` yielded a Ki of 0.0029 µM.

For the compound `CC(C)CN([C@H](CO)CCCCNC(=O)N(Cc1ccc([N+](=O)[O-])cc1)Cc1ccc2c(c1)OCO2)S(=O)(=O)c1ccc(N)cc1`, the Ki in test [1] is 0.002 µM. In test [2], this compound displayed an EC50 of 0.62 µM.

With `CC(C)CCN([C@H](CO)CCCCNC(=O)N(Cc1ccccc1)Cc1cccc2c1OCO2)S(=O)(=O)c1ccc(N)cc1`, the affinity in test [1], expressed as Ki, was 0.004 µM. In test [3], the EC50 is > 10 µM.

`Cc1ccc(S(=O)(=O)N(CC(C)C)[C@@H](CCCCNC(=O)N(Cc2ccccc2)C(C)C)C(=O)O)cc1` gave a Ki in test [1] of 0.019 µM.

With `CC(C)CN([C@H](CO)CCCCNC(=O)N(Cc1ccccc1)Cc1ccc(F)cc1)S(=O)(=O)c1ccc(N)cc1`, in test [1], affinity was put at a Ki of 0.0033 µM. Further, in test [2], the EC50 was > 10 µM.

`CC(C)CN([C@H](CO)CCCCNC(=O)N(Cc1ccccc1)Cc1cccnc1)S(=O)(=O)c1ccc(N)cc1`: the affinity in test [1], expressed as Ki, was 0.034 µM. Besides, the EC50 in test [2] came to 8.5 µM.

Turning to `CC(C)CN([C@H](CO)CCCCNC(=O)N(Cc1ccccc1)Cc1ccncc1)S(=O)(=O)c1ccc(N)cc1`, affinity in test [1] was put at a Ki of 0.09 µM. Besides, the EC50 in test [2] was > 10 µM.

In the case of `Cc1ccc(S(=O)(=O)N(CC(C)C)[C@@H](CCCCNC(=O)N(C(C)C)C(C)C)C(=O)O)cc1`, the affinity in test [1] corresponds to a Ki of 0.3 µM.
